Biological target: HPK1 (Homo sapiens (Human), UniProt Q92918)
Assay: HPK1 Kinase Binding Assay
Settings: LanthaScreen tracer 222 binding, active HPK1, one hour incubation at 25° C.
Method: A stock solution of 1 mM test compound was prepared in DMSO. The compound plate was prepared by 3-fold and 11-point serial dilutions. 0.1 μL of the compound in DMSO was transferred from the compound plate to the white 384 well polystyrene plates. The assay buffer contained 50 mM HEPES, pH 7.5, 0.01% Tween-20, 5 mM MgCl2, 0.01% BSA, and 5 mM DTT. 5 μl of 4 nM active HPK1 (SignalChem M23-11G) prepared in the buffer was added to the plate. The enzyme concentration given was based on the given stock concentration reported by the vender. 5 μl of 18 nM tracer 222 (ThermoFisher PV6121) and 4 nM LanthaScreen Eu-Anti GST antibody (ThermoFisher PV5595) were added. After one hour incubation at 25° C., the plates were read on a PHERAstar FS plate reader (BMG Labtech). Ki values were determined.

HPK1, sequence (Q92918 1-346): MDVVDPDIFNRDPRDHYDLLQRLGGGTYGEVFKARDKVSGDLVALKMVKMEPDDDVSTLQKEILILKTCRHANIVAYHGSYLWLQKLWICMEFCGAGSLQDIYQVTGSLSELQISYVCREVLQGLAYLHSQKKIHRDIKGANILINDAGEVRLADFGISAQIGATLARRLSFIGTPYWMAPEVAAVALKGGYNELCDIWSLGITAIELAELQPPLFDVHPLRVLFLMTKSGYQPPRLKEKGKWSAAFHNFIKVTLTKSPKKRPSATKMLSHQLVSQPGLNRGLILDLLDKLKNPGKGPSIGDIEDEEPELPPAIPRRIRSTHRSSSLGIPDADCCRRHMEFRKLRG

Ki, ≤ 100 nM:
Cc1ccncc1-c1cc2c(NC(=O)c3ccc(N4CCOCC4)cc3)n[nH]c2cn1 [Example 1, N-(5-(4-methylpyridin-3-yl)-1H-pyrazolo[3,4-c]pyridin-3-yl)-4-morpholinobenzamide]
Cc1ccncc1-c1cc2c(NC(=O)c3ccc(N4CCN(C)CC4)cc3)n[nH]c2cn1 [Example 2, 4-(4-Methylpiperazin-1-yl)-N-(5-(4-methylpyridin-3-yl)-1H-pyrazolo[3,4-c]pyridin-3-yl)benzamide]
CCOC(=O)N1CCN(c2ccc(C(=O)Nc3n[nH]c4cnc(-c5cnccc5C)cc34)cc2)CC1 [Example 3, Ethyl 4-(4-(5-(4-methylpyridin-3-yl)-1H-pyrazolo[3,4-c]pyridin-3-ylcarbamoyl)phenyl)piperazine-1-carboxylate]
COC1CCN(c2ccc(C(=O)Nc3n[nH]c4cnc(-c5cnccc5C)cc34)cc2)CC1 [Example 4, 4-(4-Methoxypiperidin-1-yl)-N-(5-(4-methylpyridin-3-yl)-1H-pyrazolo[3,4-c]pyridin-3-yl)benzamide]
Cc1ccncc1-c1cc2c(NC(=O)c3ccc(N4CCCC(N)C4)cc3)n[nH]c2cn1 (stereo not shown) [Example 5, 4-(3-Aminopiperidin-1-yl)-N-(5-(4-methylpyridin-3-yl)-1H-pyrazolo[3,4-c]pyridin-3-yl)benzamide]
Cc1c(-c2cc3c(NC(=O)c4ccc(N5CCOCC5)cc4)n[nH]c3cn2)cnn1C [Example 6, N-(5-(1,5-dimethyl-1H-pyrazol-4-yl)-1H-pyrazolo[3,4-c]pyridin-3-yl)-4-morpholinobenzamide]
Cc1c(-c2cc3c(NC(=O)c4ccc(N5CCN(C)CC5)cc4)n[nH]c3cn2)cnn1C [Example 7, N-(5-(1,5-dimethyl-1H-pyrazol-4-yl)-1H-pyrazolo[3,4-c]pyridin-3-yl)-4-(4-methylpiperazin-1-yl)benzamide]
CCOC(=O)N1CCN(c2ccc(C(=O)Nc3n[nH]c4cnc(-c5cnn(C)c5C)cc34)cc2)CC1 [Example 8, Ethyl 4-(4-(5-(1,5-dimethyl-1H-pyrazol-4-yl)-1H-pyrazolo[3,4-c]pyridin-3-ylcarbamoyl)phenyl)piperazine-1-carboxylate]
COC1CCN(c2ccc(C(=O)Nc3n[nH]c4cnc(-c5cnn(C)c5C)cc34)cc2)CC1 [Example 9, N-(5-(1,5-dimethyl-1H-pyrazol-4-yl)-1H-pyrazolo[3,4-c]pyridin-3-yl)-4-(4-methoxypiperidin-1-yl)benzamide]
COC1CCCN(c2ccc(C(=O)Nc3n[nH]c4cnc(-c5cnn(C)c5C)cc34)cc2)C1 (stereo not shown) [Example 10, N-(5-(1,5-dimethyl-1H-pyrazol-4-yl)-1H-pyrazolo[3,4-c]pyridin-3-yl)-4-(3-methoxypiperidin-1-yl)benzamide]
CCCNc1ccc(C(=O)Nc2n[nH]c3cnc(-c4cnn(C)c4C)cc23)cc1 [Example 11, N-(5-(1,5-dimethyl-1H-pyrazol-4-yl)-1H-pyrazolo[3,4-c]pyridin-3-yl)-4-(propylamino)benzamide]
COCCNc1ccc(C(=O)Nc2n[nH]c3cnc(-c4cnn(C)c4C)cc23)cc1 [Example 12, N-(5-(1,5-dimethyl-1H-pyrazol-4-yl)-1H-pyrazolo[3,4-c]pyridin-3-yl)-4-(2-methoxyethylamino)benzamide]
Cc1c(-c2cc3c(NC(=O)c4ccc(N5CCC(F)(F)C5)cc4)n[nH]c3cn2)cnn1C [Example 13, 4-(3,3-Difluoropyrrolidin-1-yl)-N-(5-(1,5-dimethyl-1H-pyrazol-4-yl)-1H-pyrazolo[3,4-c]pyridin-3-yl)benzamide]
COc1ccncc1-c1cc2c(NC(=O)c3ccc(N4CCN(C)CC4)cc3)n[nH]c2cn1 [Example 14, N-(5-(4-methoxypyridin-3-yl)-1H-pyrazolo[3,4-c]pyridin-3-yl)-4-(4-methylpiperazin-1-yl)benzamide]
Cc1ccncc1-c1cc2c(C(=O)Nc3ccc(N4CCN(C)CC4)cc3)n[nH]c2cn1 [Example 15, N-(4-(4-methylpiperazin-1-yl)phenyl)-5-(4-methylpyridin-3-yl)-1H-pyrazolo[3,4-c]pyridine-3-carboxamide]
COc1ccncc1-c1cc2c(C(=O)Nc3ccc(N4CCN(C)CC4)cc3)n[nH]c2cn1 [Example 16, 5-(4-Methoxypyridin-3-yl)-N-(4-(4-methylpiperazin-1-yl)phenyl)-1H-pyrazolo[3,4-c]pyridine-3-carboxamide]
